{"source": "patent US20020048551A1", "about": "“Delivery of biologically active material in a liposomal formulation for administration into the mouth” (priority 1999, published 2002)", "origin": "cited, not measured here", "conditions": "tablet absorbed through the buccal mucosa", "data": [{"smiles": "C[C@]12CCC(=O)C=C1CC[C@@H]1[C@@H]2CC[C@@]2(C)[C@H]1CC[C@]2(C)O", "note": "[methyltestosterone]", "values": [{"measurement": "androgenic activity relative to oral tablets", "result": "twice"}]}]}
